Results: US9402848B2, “Method for treating pain syndrome and other disorders” (VM Therapeutics LLC, priority 2008, dated 2016)

Experiments:
[1] = system: Formalin induced pain in rat animal models of hyperalgesia; assay: Rat Formalin Paw Test; type: in vivo; settings: FIG. 1
Experimental: Rat Formalin Paw Test (in Vivo Assay): Compounds were assessed for their ability to inhibit the behavioral response evoked by an injection of formalin (50 μl of 5% formalin). A metal band was affixed to the left hind paw of male Holtzman rats (225-250 g, Harlan Industries, Indianapolis Ind.) and each rat was conditioned to the band for 60 min within a plastic cylinder (15 cm diameter). Rats were dosed with either vehicle, positive control compound or a test compound either before (local) or after (systemic) formalin challenge. For local administration, compounds were prepared in either a 1:1.5 vehicle of saline (in mL) and (D)- or (L)-Tartaric acid (in mg), or a 1:1:6 vehicle of DMA (N,N-Dimethylacetamide), Tween 80 and saline, and injected […] into the dorsal surface of the right hind paw of the rat 60 min prior to formalin. The number of flinches was counted continuously for 60 min using an automated nociception analyzer (UCSD Anesthesiology Research, San Diego, Calif.). Statistical significance was determined by comparing the total flinches detected in the early (0-10 min, Phase I) and late (11-60 min) phase with an unpaired t-test. […]

[2] = system: Carrageenan-induced pain in rat animal model of hyperalgesia; assay: Carrageenan-induced pain in rat animal model of hyperalgesia; type: in vivo; settings: FIG. 2 and FIG. 3

Q: With Cc1nc2ccccn2c(=O)c1CCN1CCC(C(=O)c2ccc(F)cc2)CC1 [Compound 10, 3-(2-{4-[(4-fluorophenyl)carbonyl]piperidin-1-yl}ethyl)-2-methyl-4H-pyrido[1,2-a]pyrimidin-4-one] as the molecule, how does the “reduction of Formalin induced pain” value [1] read?
A: Its value is “reduction of Formalin induced pain”.

Q: And the “reduction of Carrageenan-induced pain” value [2]?
A: Its value is “reduction of Carrageenan-induced pain”.
